Source: patent publication US6342517B1, “Potassium channel activators and their use” (Cambridge Bioclinical Limited, priority 1998, dated 2002)

Assays:
[1] = test system: K+-stimulated isolated rat aorta; experiment: K+-stimulated isolated rat aorta test; conditions: relaxation of contraction triggered by 25 mM KCl in rat aorta rings; asterisk (*) = low activity, only approximate value
Experimental: K^+-stimulated Isolated Rat Aorta Test
Male rats weighing about 300 g are killed painlessly by a blow to the neck and quickly exsanguinated. The thoracic cavity is opened and the aorta is carefully resectioned. It is placed in a Petri dish filled with Krebs solution, and surrounding connective and fatty tissue is removed. Two rings are prepared. The rings are each suspended in an organ bath, They are attached at the bottom to a hook and at the top to an electrical force transducer which is able to measure precisely contractions of 0-10 grams in strength. The measured contractions are amplified by means of a bridge amplifier and recorded with a thermal plotter.
The organ baths are filled with Krebs solution at 37° C. through which an O2/CO2 mixture is bubbled thoroughly and which has the following composition (mmol/1): NaCl 118.4; KCl 4.7; CaCl2 2.5; KH2PO4 1.2; MgSO4 1.2; NaHCO3 25; glucose 11.
The rings are stretched with a basic tone of about 0.5 g, After an equilibration time of about 30 minutes, the rings are caused to undergo contraction by depolarization (addition of 25 mM KCl to the organ bath). The contractions of the rings of aorta, triggered by the depolarization, quickly reach a plateau, As soon as this plateau is reached (“100% value”), the test substance is added to the organ bath, initially at low concentrations, for example 10^−8M, and then in increasing doses at regular intervals, until the contractions reduce or the final concentration of 10^−4M is reached. Each test substance is tested 2-4 times in this way.
For purposes of evaluation, the height of the contractions registered on the plotter paper is measured for each experiment after the action of each test concentration added. The IC50 value can be calculated in this way in relation to the original height of contractions before the addition of substance (100%).

NIH 3T3 fibroblasts = experiment: Cell growth potentiation test (potentiation of mitogenic activity of fetal calf serum, EZ4U cellular proliferation assay); type: cell-based; conditions: for Cell growth potentiation relative to minoxidil at 100 μM (%): 0% = base concentration of FCS alone (5% or 3%), 100% = minoxidil at 100 μM; for Cell growth relative to FCS alone (%): 100% = same growth as base concentration of FCS alone
Description: To test for activity in mammalian hair growth stimulation, an in vitro test of cell growth potentiation has been applied to a number of the compounds of the invention and prior art compounds 11901 and 11903. The test involves an assay of the call growth due to potentiation of the mitogenic activity of fetal calf serum (FCS). See WO97/14036. Details of materials, methods and results are as follows.
Tissue culture plastics were obtained from Beckton Dickinson (Cowley, Oxford, UK). NIH 3T3 fibroblasts were obtained from the European collection of animal cell cultures (Salisbury, Wilts, UK). Dulbecco's modified Eagle's medium (DMEM) was obtained from Flow Laboratories (Rickmansworth, Herts, UK). L-Glutamine and fetal calf serum were from Gibco (Paisley, UK).
The EZ4U cell proliferation assay kits were obtained from Cozart Bioscience Ltd (Abingdon, Oxon, UK). All other chemicals were obtained from Sigma Chemical Company Ltd. (Poole, Dorset, UK), and of the highest grade available.
NIH 3T3 fibroblasts were maintained in Dulbecco's modified Eagle's medium supplemented with 10% FCS and 2 mM L-glutamine in 150 cm^2 tissue culture flasks at 37° C. in an atmosphere of 5% CO2/95% air. Antibiotics were omitted. Medium was changed every 3 days, and passages were carried out twice a week before cells reached confluence. Prior to experiments, cells were passaged and plated out to give 10^4 cell/ml in 96-well multi-well plates. Cells were incubated for 24 hours with Dulbecco's modified Eagle's medium supplemented with 10% FCS to aid attachment. This was then removed and the experimental medium added.
Compounds were prepared following a general preparation protocol. This protocol consisted of taking a mass of compound, dissolving in the recommended solvent (40 μl) such that in the final preparation the concentrations of compound and solvent would be 100 μM and 0.1 respectively. In theory this volume was 40 μl, however for accuracy a mass larger than the required mass was dispensed and the solvent volume varied accordingly; only 40 μl of this solution was required for the next stage. The 40 μl volume was then added to a volume of FCS (1.2 ml), such that in the final preparation the concentration of FCS would be 3%. This solution was then added to DMEM containing L-glutamine (2 mM) (18.76 ml). The resulting solution of 20 ml volume was filter stabilised. This solution is now 200 μM in compound, 6% FCS and 0.2% solvent, and so was diluted 1:1 with the DMEM containing L-glutamine. This 100 μM stock could then be diluted serially to provide lower concentrations of the compound of interest. Solutions containing different ratios of compound and FCS were obtained in a similar manner.
This was performed, following the manufacturer's instructions, using an EZ4U assay kit, which is based upon the conversion of tetrazolium salt to coloured formazam derivatives by mitochondria (Hansen et al, 1989). Plates were read on a plate reader (Anthos Labtec HT2), using a measurement filter (450 nm), with a reference filter (620 nm) with a low Shaking density for 5 seconds prior to measurement. Control experiments were made against counting cells in a haemocytometer (sanders et al, 1996). There is some variance of results between different batches of FCS employed.
A series of cell growth potentiation/inhibition tests has been carried out in accordance with the procedure described above on some of the compounds of the invention, on compounds 11901 and 11903 and on minoxidil (a compound well known for its hair growth stimulation effects). Because of some variability of results with different batches of FCS, each compound was tested in a solution of a base concentration of FCS and was compared with minoxidil in a solution of the same base concentration of FCS and with a solution having the same base concentration of FCS alone (no additive), using the same FCS batch in order to provide standardised comparisons for that compound. […]

Compound	IC50 [1] [µM]	melting point [°C]	Cell growth potentiation relative to minoxidil at 100 μM (%) (NIH 3T3 fibroblasts; Compound at 10 μM)	Cell growth potentiation relative to minoxidil at 100 μM (%) (NIH 3T3 fibroblasts; Compound at 100 μM)	Cell growth relative to FCS alone (%) (NIH 3T3 fibroblasts; Compound at 100 μM)	Cell growth relative to FCS alone (%) (NIH 3T3 fibroblasts; Compound at 10 μM)
CC1(C)Oc2cc(S(=O)(=O)c3ccccc3)sc2[C@@H](N2CCCC2=O)[C@@H]1O (relative stereo) [Compound 50123, rel-(6S,7S)-6,7-Dihydro-6-hydroxy-5,5-dimethyl-7-(2-oxo-1-pyrrolidinyl)-2-(phenylsulphonyl)-5H-thieno[3,2-b]pyran]	0.026		120		94	
CC1=C(C)CC2(CC(C)(C)Oc3ccsc32)SC1 (stereo not drawn) [Compound 50049, 3′,6,6′,7-Tetrahydro-4′,5,5,5′-tetramethylspiro[5H-thieno[3,2-b]pyran-7,2′-2H-thiopyran]]	~10	90 to 92			50	100
CC1(C)C=C(N2CCCC2=O)c2sc(S(=O)(=O)c3ccccc3)cc2O1 [Compound 50109, 5,5-Dimethyl-7-(2-oxo-1-pyrrolidinyl)-2-(phenylsulphonyl)-5H-thieno[3,2-b]pyran]	0.24		233	122		
CC1=C(C)CC2(CC(C)(C)Oc3cc(S(=O)(=O)c4ccccc4)sc32)SC1 (stereo not drawn) [Compound 50121, 3′,6,6′,7-Tetrahydro-4′,5,5,5′-tetramethyl-2-(phenylsulphonyl)spiro[5H-thieno[3,2-b]pyran-7,2′-2H-thiopyran]]	> 100	175 to 178	285	271		

Further lines, with some results ahead:

IC50 [1] [µM]	melting point [°C]	Compound	Cell growth potentiation relative to minoxidil at 100 μM (%) (NIH 3T3 fibroblasts; Compound at 10 μM)	Cell growth potentiation relative to minoxidil at 100 μM (%) (NIH 3T3 fibroblasts; Compound at 100 μM)	Cell growth relative to FCS alone (%) (NIH 3T3 fibroblasts; Compound at 100 μM)	Cell growth relative to FCS alone (%) (NIH 3T3 fibroblasts; Compound at 10 μM)
~10	179 to 183	CC1=C(C)C[C@@]2(CC(C)(C)Oc3cc(C#N)sc32)[S@+]([O-])C1 (relative stereo) [Compound 50097, rel-(1′R, 2′S)-3′,6,6′,7-Tetrahydro-4′,5,5′,5-tetramethyl-1′-oxospiro[5H-thieno[3,2-b]pyran-7,2′-2H-thiopyran]-2-carbonitrile]	242	257		
2.9	121 to 123	CC1(C)CC2(SCCCS2)c2sccc2O1 [Compound 50048, 6′,7′-Dihydro-5′,5′-dimethylspiro[1,3-dithiane-2,7′-5H-thieno[3,2-b]pyran]]				
~10		CC1(C)CC2(SCCCS2)c2sc(C#N)cc2O1 [Compound 50057, 6′,7′-Dihydro-5′,5′-dimethylspiro[1,3-dithiane-2,7′-5H-thieno[3,2-b]pyran]-2′-carbonitrile]		33		98
~10	148 to 149	CC1=C(C)CC2(CC(C)(C)Oc3cc(C#N)sc32)SC1 (stereo not drawn) [Compound 50092, 3′,6,6′,7-Tetrahydro-4′,5,5,5′-tetramethylspiro[5H-thieno[3,2-b]pyran-7,2′-2H-thiopyran]-2-carbonitrile]	214	71		
